Test results published in ChEMBL document CHEMBL3865843, “Identification of Ligand Binding Hot Spots of the Histamine H1 Receptor following Structure-Based Fragment Optimization” (J Med Chem, 2016).

Legend:
[1] = Displacement of [3H]mepyramine from human N-terminal hemagglutinin-tagged histamine H1 receptor I454(7.39)T mutant expressed in HEK293T cells after 4 hrs by microbeta liquid scintillation counting analysis; assay type: cell-based; conditions: hek-293t
[2] = Displacement of [3H]mepyramine from human N-terminal hemagglutinin-tagged histamine H1 receptor I454(7.39)F mutant expressed in HEK293T cells after 4 hrs by microbeta liquid scintillation counting analysis; assay type: cell-based; conditions: hek-293t
Histamine H1 receptor = Histamine H1 receptor (Homo sapiens, UniProt P35367); experiment: biochemical; assay type: cell-based, HEK-293T
Sequence of Histamine H1 receptor (P35367 whole entry): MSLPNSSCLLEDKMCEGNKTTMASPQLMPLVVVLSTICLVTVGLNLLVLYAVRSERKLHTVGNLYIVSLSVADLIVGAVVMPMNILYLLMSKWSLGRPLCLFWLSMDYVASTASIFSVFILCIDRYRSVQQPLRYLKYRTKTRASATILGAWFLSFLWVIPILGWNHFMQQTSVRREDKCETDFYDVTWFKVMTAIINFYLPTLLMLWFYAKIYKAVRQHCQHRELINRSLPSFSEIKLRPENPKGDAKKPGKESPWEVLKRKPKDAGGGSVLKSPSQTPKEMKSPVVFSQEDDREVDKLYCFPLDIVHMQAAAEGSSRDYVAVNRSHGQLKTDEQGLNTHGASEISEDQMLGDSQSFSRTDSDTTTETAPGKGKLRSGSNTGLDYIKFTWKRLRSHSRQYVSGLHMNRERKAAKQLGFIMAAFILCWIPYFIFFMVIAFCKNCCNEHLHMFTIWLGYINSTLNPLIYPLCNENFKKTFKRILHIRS

| Structure (SMILES) | pKi [1] | pKi [2] | Ki (Histamine H1 receptor) |
| --- | --- | --- | --- |
| CN1CCC(Oc2ccccc2Cc2ccccc2)CC1.O=C(O)/C=C/C(=O)O | 8.3 | 8.2 | – |
| CN(C)CCOc1ccccc1Cc1ccccc1 | – | – | 12.6 nM |
| Clc1ccc(Cc2ccccc2OC2CCNCC2)cc1 | – | – | 6.31 nM |
| NCCOc1ccccc1Cc1ccccc1 | – | – | 1580 nM |
| c1ccc(Cc2ccccc2OCCN2CCC2)cc1 | – | – | 6.31 nM |
| CN1CCC(Oc2ccccc2Cc2ccc(Cl)cc2)CC1 | – | – | 2.51 nM |
| CNCCOc1ccccc1Cc1ccccc1 | – | – | 100 nM |
| C[N+]1(C)CCC(Oc2ccccc2Cc2ccccc2)CC1 | – | – | 25.1 nM |
| c1ccc(Cc2ccccc2OCCCN2CCCCC2)cc1 | – | – | 12.6 nM |
| CNCCCOc1ccccc1Cc1ccccc1 | – | – | 31.6 nM |
| c1ccc(Cc2ccccc2OCCCN2CCCCCC2)cc1 | – | – | 20 nM |
| CN(C)CCCOc1ccccc1Cc1ccccc1 | – | – | 3.16 nM |
| CN1CCC(Oc2ccccc2)CC1 | – | – | 251 nM |
| c1ccc(Cc2ccccc2OCCN2CCCCC2)cc1 | – | – | 25.1 nM |
| c1ccc(Cc2ccccc2OCCCN2CCCC2)cc1 | – | – | 10 nM |
| c1ccc(Cc2ccccc2OCCN2CCCC2)cc1 | – | – | 15.8 nM |
| c1ccc(Cc2ccccc2OCCCN2CCC2)cc1 | – | – | 7.94 nM |
| c1ccc(Cc2ccccc2OCCN2CCCCCC2)cc1 | – | – | 63.1 nM |
| c1ccc(OC2CCNCC2)cc1 | – | – | 3980 nM |
| O=C(O)/C=C/C(=O)O.c1ccc(Cc2ccccc2OC2CCNCC2)cc1 | 8 | 7.4 | 15.8 nM |
| c1ccc(Cc2cccc(OC3CCNCC3)c2)cc1 | – | – | 1580 nM |
| NCCCOc1ccccc1Cc1ccccc1 | – | – | 316 nM |
| c1ccc(-c2ccccc2OC2CCNCC2)cc1 | – | – | 316 nM |
| c1ccc(Cc2ccc(OC3CCNCC3)cc2)cc1 | – | – | 10000 nM |
